Patent publication US20260199294A1, “PEPTIDE DRUG CONJUGATES” (Oncopeptides Innovation AB, priority 2022, published 2026)

Assays:
[1] = tested on: MM.1S cells; test: Cellular retention/efflux: intracellular and extracellular concentrations by LC-MS/MS; format: in vitro ADME, human; settings: MM.1S cells
Protocol: Methods: MM.1S cells at 2×10^6 cells/mL were seeded at 250 μL per well in a 96-well plate. Cells were incubated in the presence of a test compound for 5, 15, and 60 min before pelleting cells by centrifugation at +4° C. for 5 min. Cell media was immediately harvested to a second plate and stored at −80° C. until further analysis. Pelleted cells were washed once with ice cold PBS before storage at −80° C. until further analysis.
Cells were lysed and protein in the media were precipitated using acetonitrile dimethylformamide, 9:1 containing internal standard. Samples were centrifuged and the supernatant was analyzed with LC-MS/MS (ACQUITY UPLC-Xevo TQ-S micro) to determine compound concentration.
Example compound 1, bendamustine and melphalan were used as test compounds.
Method: Method described in Biological example 3.
Example compounds 1, 2, 3, 4, 6, 7 and 10 were investigated. Intracellular metabolites are formed from all compounds tested. The compound used for cell treatment was metabolised to the ester-hydrolysed compound (here called Metabolite A) and to the amide-hydrolysed compound (called Metabolite B). The example compound structures and the structures of the two metabolites for the respective compounds were as shown in Table 4. The Metabolites B formed under the conditions tested were compounds with structure as Examples 17 and 18: […]

[2] = tested on: hPBMC (Human Peripheral blood mononuclear cells); test: In vitro cytotoxicity (CellTiter-Glo, 72 h) in hPBMC; format: cell-based; settings: stimulated with PHA-M and IL-2
Protocol: All cells were cultivated in RPMI medium 1640 (IX). All media was supplemented with […] penicillin/streptomycin, 10% heat inactivated FBS, 0.1 mM Sodium Pyruvate, 1×MEM NEAA (ThermoFisher) and 1 mM HEPES. The DERL-2 cells had higher FBS (20%) and 40 ng/mL IL-2 was added. hPBMCs were thawed and allowed to acclimatise overnight and then stimulated with 10 µg/mL PHA-M and 40 ng/mL IL-2 for 4 hours before being exposed to test compounds. All cells, except for hPBMCs, were grown to reach log phase before being exposed to the test compounds.
Test compounds were dissolved in 100% DMSO and added to a 384 assay plate. Additional DMSO was added to maintain the same final DMSO concentration (0.2%) in all wells. 25 μL cell suspension with a concentration of 100000 cells/mL was added to each well. The cells were cultured in a CO2 incubator at 37° C. for 72 h. Plates were equilibrated to room temperature for 30 minutes before adding 20 μL CellTiter-Glo® 2.0 (Promega) reagent to all wells. The plate was then allowed to stabilize for 20 minutes before recording the luminescence (Em filter 700 nm) in an Envision plate reader.

CCOC(=O)[C@H](CC(C)C)NC(=O)[C@@H](N)CCc1nc2cc(N(CCCl)CCCl)ccc2n1C [Example compound 1, Ethyl (2S)-2-[[(2S)-2-amino-4-[5-[bis(2-chloroethyl)amino]-1-methyl-benzimidazol-2-yl]butanoyl]amino]-4-methyl-pentanoate]
intracellular hydrolysis / metabolite formation [1]: hydrolysis of Example compound 1 took place inside the cells
IC50 [2]: 5.4 nM
